Reference: the supplement of paper PMC11952222, “Development and comparison of single FLT3-inhibitors to dual FLT3/TAF1-inhibitors as an anti-leukemic approach” (PLOS One, 2025)
± gives the standard deviation of the averaged measurements.

Tests used:
Assay in all cases: cell viability (CellTiter-Glo luminescence) relative to DMSO (fraction of DMSO control); higher = higher signal (more live cells for CellTiter-Glo)
Details in all cases: 72 h
DU4475 = test system: DU4475
Description: (§1)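 MOLM13, DU4475, HDQP1 and IGROV1 cells were treated with compounds in 384-well format for 72 h (KASUMI-1 in 96-well plates, RPMI + 10% FCS, 72 h). Viability was read with CellTiter-Glo and cell death with CellTox Green, both normalised to DMSO vehicle. Doses ranged 0.001-30 µM.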

MOLM13 = test system: MOLM13
Description: as §1

HDQP1 = test system: HDQP1
Description: as §1

IGROV1 = test system: IGROV1
Description: as §1

KASUMI-1 = test system: KASUMI-1
Description: as §1

SMILES | cell viability (DU4475; 0.01 µM) | cell viability (DU4475; 0.1 µM) | cell viability (DU4475; 0.3 µM) | cell viability (DU4475; 1 µM) | cell viability (DU4475; 3 µM) | cell viability (DU4475; 10 µM) | cell viability (DU4475; 30 µM) | cell viability (MOLM13; 0.01 µM) | cell viability (MOLM13; 0.1 µM) | cell viability (MOLM13; 0.3 µM) | cell viability (MOLM13; 1 µM) | cell viability (MOLM13; 3 µM) | cell viability (MOLM13; 10 µM) | cell viability (MOLM13; 30 µM) | cell viability (HDQP1; 0.01 µM) | cell viability (HDQP1; 0.1 µM) | cell viability (HDQP1; 0.3 µM) | cell viability (HDQP1; 1 µM) | cell viability (HDQP1; 3 µM) | cell viability (HDQP1; 10 µM) | cell viability (HDQP1; 30 µM) | cell viability (IGROV1; 0.01 µM) | cell viability (IGROV1; 0.1 µM) | cell viability (IGROV1; 0.3 µM) | cell viability (IGROV1; 1 µM) | cell viability (IGROV1; 3 µM) | cell viability (IGROV1; 10 µM) | cell viability (IGROV1; 30 µM) | cell viability (KASUMI-1; 0.000948683 µM) | cell viability (KASUMI-1; 0.003 µM) | cell viability (KASUMI-1; 0.00948683 µM) | cell viability (KASUMI-1; 0.03 µM) | cell viability (KASUMI-1; 0.0948683 µM) | cell viability (KASUMI-1; 0.3 µM) | cell viability (KASUMI-1; 0.948683 µM) | cell viability (KASUMI-1; 3 µM) | cell viability (KASUMI-1; 9.48683 µM) | cell viability (KASUMI-1; 30 µM)
C=CCCn1cc(-c2cc(C(=O)N3CCOCC3)cc3c2ncn3C)c2cc[nH]c2c1=O [GNE-371] | 1.01 ± 0.017 | 1.01 ± 0.026 | 1.02 ± 0.023 | 1.01 ± 0.029 | 1.02 ± 0.027 | 1.03 ± 0.036 | 1.05 ± 0.051 | 1.01 ± 0.041 | 0.989 ± 0.05 | 0.986 ± 0.025 | 0.994 ± 0.031 | 0.986 ± 0.056 | 0.95 ± 0.067 | 0.928 ± 0.091 | 1.04 ± 0.04 | 1.03 ± 0.047 | 1.02 ± 0.036 | 0.975 ± 0.04 | 0.971 ± 0.055 | 0.999 ± 0.056 | 0.979 ± 0.047 | 1.07 ± 0.11 | 1.02 ± 0.07 | 0.935 ± 0.064 | 0.975 ± 0.052 | 0.95 ± 0.11 | 0.931 ± 0.043 | 0.958 ± 0.054 | – | – | – | – | – | – | – | – | – | –
CC(C)(C)c1cc(NC(=O)Nc2ccc(-c3cn4c(n3)sc3cc(OCCN5CCOCC5)ccc34)cc2)no1 [quizartinib] | 1 ± 0.03 | 0.813 ± 0.038 | 0.336 ± 0.06 | 0.196 ± 0.052 | 0.0647 ± 0.034 | 0.317 ± 0.075 | 0.0882 ± 0.042 | 0.00342 ± 0.00075 | 0.00261 ± 0.00061 | 0.00141 ± 0.0005 | 0.00194 ± 0.00081 | 0.000901 ± 0.00082 | 0.00066 ± 0.00036 | 0.000483 ± 0.00064 | 0.984 ± 0.052 | 1.01 ± 0.051 | 0.87 ± 0.054 | 0.807 ± 0.021 | 0.716 ± 0.088 | 0.84 ± 0.095 | 0.69 ± 0.13 | 1.08 ± 0.081 | 1.07 ± 0.1 | 0.721 ± 0.12 | 0.633 ± 0.12 | 0.468 ± 0.12 | 0.614 ± 0.093 | 0.384 ± 0.069 | – | – | – | – | – | – | – | – | – | –
CC(C)(C)c1ccc(C(=O)Nc2cc(-c3ccccc3)n[nH]2)cc1 [3i-1247] | 1.02 ± 0.037 | 0.998 ± 0.027 | 0.955 ± 0.025 | 0.873 ± 0.027 | 0.446 ± 0.053 | 0.028 ± 0.0065 | 0.00743 ± 0.006 | 0.858 ± 0.073 | 0.388 ± 0.12 | 0.19 ± 0.062 | 0.0317 ± 0.0089 | 0.00462 ± 0.0058 | 0.00157 ± 0.00088 | 0.000514 ± 0.00038 | 0.999 ± 0.019 | 1 ± 0.016 | 0.943 ± 0.046 | 0.877 ± 0.062 | 0.786 ± 0.061 | 0.719 ± 0.071 | 0.584 ± 0.12 | 0.974 ± 0.071 | 0.955 ± 0.11 | 0.803 ± 0.035 | 0.739 ± 0.034 | 0.467 ± 0.062 | 0.365 ± 0.019 | 0.243 ± 0.049 | 1.26 ± 0.087 | 1.338 ± 0.0028 | 1.48 ± 0.063 | 1.411 ± 0.0049 | 1.38 ± 0.063 | 1.37 ± 0.064 | 1.2 ± 0.041 | 0.5738 ± 0.0019 | 0.1148 ± 0.00061 | 0.0202 ± 0.0019
Cc1cc(-c2cc(NC(=O)c3ccc(C(C)(C)C)cc3)[nH]n2)ccn1 [3i-1246] | 1 ± 0.023 | 1 ± 0.048 | 0.983 ± 0.023 | 0.966 ± 0.045 | 0.92 ± 0.029 | 0.435 ± 0.12 | 0.00106 ± 0.0011 | 0.959 ± 0.052 | 0.755 ± 0.043 | 0.418 ± 0.062 | 0.21 ± 0.031 | 0.0386 ± 0.018 | 0.0136 ± 0.037 | 0.000242 ± 0.0027 | 0.98 ± 0.034 | 0.99 ± 0.031 | 0.986 ± 0.057 | 0.928 ± 0.083 | 0.943 ± 0.068 | 0.628 ± 0.098 | 0.178 ± 0.052 | 0.998 ± 0.05 | 0.958 ± 0.072 | 0.866 ± 0.042 | 0.864 ± 0.095 | 0.811 ± 0.053 | 0.587 ± 0.085 | 0.19 ± 0.051 | 1.076 ± 0.0022 | 1.13 ± 0.067 | 1.17 ± 0.087 | 1.22 ± 0.064 | – | 1.1 ± 0.073 | 0.962 ± 0.2 | 0.566 ± 0.018 | 0.239 ± 0.0055 | 0.00978 ± 0.0007
Cn1cc(-c2cc(NC(=O)c3ccc(C(C)(C)C)cc3)n[nH]2)ccc1=O [3i-1248] | 1.01 ± 0.029 | 1.01 ± 0.031 | 1 ± 0.035 | 0.984 ± 0.043 | 0.893 ± 0.054 | 0.572 ± 0.078 | 0.0157 ± 0.016 | 0.988 ± 0.09 | 0.912 ± 0.088 | 0.773 ± 0.053 | 0.459 ± 0.07 | 0.179 ± 0.049 | 0.00744 ± 0.0056 | -0.000138 ± 0.00087 | 0.995 ± 0.032 | 0.989 ± 0.033 | 0.981 ± 0.082 | 0.973 ± 0.046 | 0.913 ± 0.048 | 0.807 ± 0.054 | 0.269 ± 0.13 | 0.989 ± 0.047 | 0.982 ± 0.075 | 0.953 ± 0.12 | 0.861 ± 0.067 | 0.783 ± 0.047 | 0.568 ± 0.075 | 0.0746 ± 0.044 | 1.15 ± 0.053 | 1.25 ± 0.078 | 1.36 ± 0.027 | 1.503 ± 0.0079 | 1.43 ± 0.11 | 1.41 ± 0.072 | 1.37 ± 0.046 | 1.11 ± 0.061 | 0.455 ± 0.036 | 0.00672 ± 0.00072
